These results are taken from US4868181A, “1,4-dihydropyridine derivatives with calcium agonist and alpha1 -antagonist activity” (E. I. Du Pont de Nemours and Company, priority 1987, dated 1989).

One assay has as its target alpha1 -adrenoceptors. Put plainly: [^3 H]-prazosin binding assay (affinity for alpha1-adrenoceptors). Particulars: rat brain membranes, 0.2 nM [^3 H]-prazosin, 60 minutes at 25°. Here is the method: The [^3 H]-prazosin binding assay was carried out according to the method described by Timmermans, P. B. M. W. M., Schoop, A. M. C., and Van Zwieten, P. A.: Biochem Pharmacol., 31, 899-905, 1982 (1). The reaction mixture contained partially purified rat brain membranes (source of alpha1 -adrenoceptors), 0.2 nM [^3 H]-prazosin with or without potential displacer in Tris buffer. The mixture was incubated for 60 minutes at 25° and subsequently terminated by rapid filtration through glass fiber-filter. Receptor-bound [^3 H]-prazosin trapped in the filter was quantitated by scintillation counting. The inhibitory concentration (IC50) of potential displacer which gives 50% displacement of the total specifically bound [^3 H]-prazosin is presented as a measure of the affinity of such compound for the alpha1 -adrenoceptor.

The subject of a further assay is guinea pig left atria. Put plainly: Positive inotropic effect in guinea pig left atria. To be noted: 37°. Here is the method:
Guinea pigs are killed by cervical dislocation. The left atria are removed and mounted at 1 gm resting tension in tissue baths containing oxygenated Krebs bicarbonate solution which is kept at 37°. The left atria are electrically paced at 2Hz with square wave pulses of 1 msec duration. The voltage is set at 1.5× threshold level.
After a one hour equilibration period, control values for developed tension (DT, gm) are recorded. Test compounds are then added to the baths, in a cumulative manner to a maximum concentration of 10^-4, to obtain a concentration-response curve. Treatment values of DT are obtained after the rug effect has reached a plateau and the exposure time for each concentration is 5-8 minutes. Percent change of the treatment value from the control value is calculated at each concentration of the test compound.

The target of another assay is T1, Ca^2 + channels (Rattus norvegicus, UniProt P22002).
T1 construct: rat cardiac microsomes (source of Ca^2 + channels); from tissue; host or cells: rat cardiac microsomes
T1 sequence (P22002 whole entry, other chains not shown): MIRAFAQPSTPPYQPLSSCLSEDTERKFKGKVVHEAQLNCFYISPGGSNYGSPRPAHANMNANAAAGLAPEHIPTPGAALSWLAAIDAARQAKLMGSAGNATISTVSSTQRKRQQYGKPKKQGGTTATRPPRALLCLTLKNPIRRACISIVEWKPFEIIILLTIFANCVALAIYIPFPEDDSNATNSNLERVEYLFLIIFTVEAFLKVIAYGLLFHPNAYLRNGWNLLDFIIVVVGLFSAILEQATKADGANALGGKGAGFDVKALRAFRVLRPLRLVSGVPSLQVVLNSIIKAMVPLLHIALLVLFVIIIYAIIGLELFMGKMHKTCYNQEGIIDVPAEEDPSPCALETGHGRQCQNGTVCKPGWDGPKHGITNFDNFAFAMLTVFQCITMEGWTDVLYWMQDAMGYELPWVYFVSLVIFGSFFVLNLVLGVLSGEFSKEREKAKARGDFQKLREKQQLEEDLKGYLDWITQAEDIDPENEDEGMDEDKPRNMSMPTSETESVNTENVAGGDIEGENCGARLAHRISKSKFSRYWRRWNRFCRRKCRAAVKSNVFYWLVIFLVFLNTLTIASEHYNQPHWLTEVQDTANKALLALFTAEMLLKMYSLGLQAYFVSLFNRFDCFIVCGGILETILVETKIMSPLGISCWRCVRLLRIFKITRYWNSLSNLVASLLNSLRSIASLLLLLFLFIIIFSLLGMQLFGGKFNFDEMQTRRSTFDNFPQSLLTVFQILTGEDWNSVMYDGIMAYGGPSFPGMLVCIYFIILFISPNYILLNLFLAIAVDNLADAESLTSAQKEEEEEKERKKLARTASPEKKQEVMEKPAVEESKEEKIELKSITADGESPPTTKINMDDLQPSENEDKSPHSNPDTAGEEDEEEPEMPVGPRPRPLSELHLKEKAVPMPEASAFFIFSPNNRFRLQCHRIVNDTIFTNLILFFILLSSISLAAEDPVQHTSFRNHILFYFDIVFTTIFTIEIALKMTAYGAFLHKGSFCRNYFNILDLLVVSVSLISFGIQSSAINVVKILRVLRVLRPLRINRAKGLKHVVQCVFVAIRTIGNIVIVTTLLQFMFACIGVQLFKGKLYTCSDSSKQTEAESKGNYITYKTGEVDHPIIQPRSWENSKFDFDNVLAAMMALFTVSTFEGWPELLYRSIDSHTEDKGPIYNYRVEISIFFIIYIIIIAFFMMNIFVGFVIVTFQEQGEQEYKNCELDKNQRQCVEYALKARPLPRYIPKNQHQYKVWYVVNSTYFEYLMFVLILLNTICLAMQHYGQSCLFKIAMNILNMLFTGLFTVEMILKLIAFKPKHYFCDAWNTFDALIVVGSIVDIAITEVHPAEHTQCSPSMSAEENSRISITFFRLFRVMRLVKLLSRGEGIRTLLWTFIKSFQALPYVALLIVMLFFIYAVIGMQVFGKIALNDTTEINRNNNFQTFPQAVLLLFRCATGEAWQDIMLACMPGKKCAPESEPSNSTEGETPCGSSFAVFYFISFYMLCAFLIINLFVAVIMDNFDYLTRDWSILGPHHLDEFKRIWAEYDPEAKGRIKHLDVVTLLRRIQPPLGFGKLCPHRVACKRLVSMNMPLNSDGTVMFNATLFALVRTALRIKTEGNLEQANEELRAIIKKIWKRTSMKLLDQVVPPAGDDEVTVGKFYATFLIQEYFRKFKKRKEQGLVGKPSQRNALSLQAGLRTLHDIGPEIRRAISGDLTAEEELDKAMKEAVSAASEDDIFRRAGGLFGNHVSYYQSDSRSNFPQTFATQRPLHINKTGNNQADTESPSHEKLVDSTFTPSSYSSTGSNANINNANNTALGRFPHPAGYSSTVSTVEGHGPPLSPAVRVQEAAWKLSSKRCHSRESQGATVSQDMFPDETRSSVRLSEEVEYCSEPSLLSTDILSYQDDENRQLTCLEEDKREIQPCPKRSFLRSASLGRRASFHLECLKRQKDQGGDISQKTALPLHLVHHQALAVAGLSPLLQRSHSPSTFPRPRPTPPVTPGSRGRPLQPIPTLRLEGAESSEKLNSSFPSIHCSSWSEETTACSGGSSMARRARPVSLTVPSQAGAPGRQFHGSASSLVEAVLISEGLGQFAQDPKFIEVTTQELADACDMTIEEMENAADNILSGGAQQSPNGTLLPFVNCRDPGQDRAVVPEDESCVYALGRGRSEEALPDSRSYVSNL
T1 sequence (P54290 25-944 partner limits assumed, other chains not shown): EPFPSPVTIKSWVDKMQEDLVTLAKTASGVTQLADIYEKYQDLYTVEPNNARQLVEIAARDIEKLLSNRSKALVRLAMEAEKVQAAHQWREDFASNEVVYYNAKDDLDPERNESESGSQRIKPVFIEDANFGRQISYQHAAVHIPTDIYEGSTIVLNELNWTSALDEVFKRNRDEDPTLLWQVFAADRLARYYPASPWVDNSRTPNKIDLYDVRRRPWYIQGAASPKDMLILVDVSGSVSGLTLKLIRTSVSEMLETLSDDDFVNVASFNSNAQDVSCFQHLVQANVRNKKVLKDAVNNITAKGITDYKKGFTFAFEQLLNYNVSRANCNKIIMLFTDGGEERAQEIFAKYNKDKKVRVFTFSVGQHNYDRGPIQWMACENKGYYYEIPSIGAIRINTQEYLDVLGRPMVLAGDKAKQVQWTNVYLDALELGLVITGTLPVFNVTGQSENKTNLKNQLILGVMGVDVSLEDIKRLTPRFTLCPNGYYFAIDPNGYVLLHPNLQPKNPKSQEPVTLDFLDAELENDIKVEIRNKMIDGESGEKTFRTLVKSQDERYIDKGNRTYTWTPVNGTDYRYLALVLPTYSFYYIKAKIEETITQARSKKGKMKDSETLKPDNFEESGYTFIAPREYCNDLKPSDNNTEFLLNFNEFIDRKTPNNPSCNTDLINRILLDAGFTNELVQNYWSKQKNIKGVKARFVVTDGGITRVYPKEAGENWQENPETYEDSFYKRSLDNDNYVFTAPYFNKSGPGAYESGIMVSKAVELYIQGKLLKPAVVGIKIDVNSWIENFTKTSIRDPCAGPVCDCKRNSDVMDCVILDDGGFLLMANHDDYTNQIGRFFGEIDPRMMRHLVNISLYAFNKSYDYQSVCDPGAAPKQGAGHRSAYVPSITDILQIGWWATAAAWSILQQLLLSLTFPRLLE
T1 sequence (P54290 945-1091 partner limits assumed, other chains not shown): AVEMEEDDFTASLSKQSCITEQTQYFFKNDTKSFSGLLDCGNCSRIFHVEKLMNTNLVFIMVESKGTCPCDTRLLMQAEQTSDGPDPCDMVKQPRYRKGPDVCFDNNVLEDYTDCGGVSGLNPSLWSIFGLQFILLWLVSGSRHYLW
Put plainly: [^3 H]-Nitrendipine binding assay (affinity for calcium channels). Particulars: rat cardiac microsomes, 0.5 nM [^3 H]-nitrendipine, 60 minutes at 25°. Here is the method:
[^3 H]-Nitrendipine binding assay was carried out according to the method described by G. T. Bolger, et al., Biochem. Biophys. Res. Comm., 104, 1604-1609, 1982 (1). The reaction mixture contained rat cardiac microsomes (source of Ca^2 + channels), 0.5 nM [^3 H]-nitrendipinewith or without potential displacer in Tris buffer. The mixture was incubated for 60 minutes at 25° and subsequently terminated by rapid filtration through a glass fiber-filter. Membrane-bound [^3 H]-nitrendipine trapped in the filter was quantitated by scintillation counting. The inhibitory concentration (IC50) of potential displacer which gives 50% displacement of the total specifically bound [^3 H]-nitrendipine is presented as a measure of the affinity of such compound for the Ca^2 + channel.

A value given as a limit tells only on which side of the number the result lay.

Broadly, the IC50 is the concentration at which inhibition is half-maximal.

Molecule `COc1ccccc1N1CCN(CCOC(=O)C2=C(C)NC(C)=C([N+](=O)[O-])C2c2cccc(C(F)(F)F)c2)CC1` (stereo not shown) [Example 1, 1,4-Dihydro-2,6-dimethyl-5-nitro-4-[3-(trifluoromethyl)phenyl]-[2-[4-(2-methoxyphenyl)-1-piperazinyl]ethyl]ester-3-pyridinecarboxylic acid] had an IC50 at alpha1 -adrenoceptors of 0.96 µM. In addition, the EC50 in the assay with guinea pig left atria (left atria paced at 2Hz, cumulative addition to maximum 10^-4, read-out: EC50 (concentration that increases DT by 50% above the control DT)) worked out at 27 µM. In the assay on guinea pig left atria (relative to Bay K 8644, left atria paced at 2Hz), the “Intrinsic Activity (ratio of the maximum effect of the test compound to that of Bay K 8644)” value is on record as 30%.
Consider `COc1ccccc1N1CCN(CCCCOC(=O)C2=C(C)NC(C)=C([N+](=O)[O-])C2c2cccc(C(F)(F)F)c2)CC1` (stereo not shown) [Example 57], for which the IC50 came out at 0.97 µM at alpha1 -adrenoceptors and 0.99 µM on Ca^2 + channels.
The matching figures for `COC(=O)C1=C(C)NC(C)=C([N+](=O)[O-])C1c1cc(OCCN2CCN(c3ccccc3OC)CC2)ccc1[N+](=O)[O-]` (stereo not shown) [Example 68]: 0.59 µM and 16 µM.
On the same counts, the results for `COC(=O)C1=C(C)NC(C)=C([N+](=O)[O-])C1c1ccccc1OCCCN1CCN(c2ccccc2C(F)(F)F)CC1` (stereo not shown) [Example 104] are 8.6 µM and 0.2 µM.
In the case of `COc1ccccc1N1CCN(CCCCOc2ccccc2C2C(C(=O)Nc3ccccc3)=C(C)NC(C)=C2[N+](=O)[O-])CC1` (stereo not shown) [Example 115], the results for the IC50 on alpha1 -adrenoceptors and on Ca^2 + channels were 0.13 µM and 110 µM, respectively.
Regarding `COC(=O)C1=C(C)NC(C)=C([N+](=O)[O-])C1c1ccccc1OCCCCN1CCN(c2ccccc2C)CC1` (stereo not shown) [Example 118], the IC50 on alpha1 -adrenoceptors came out at 0.85 µM; on Ca^2 + channels it was 0.54 µM.
On the same counts, the results for `COC(=O)C1=C(C)NC(C)=C([N+](=O)[O-])C1c1ccccc1OCC=CCN1CCN(c2ccccc2OC)CC1` (stereo not shown) [Example 119] are 0.49 µM and 0.8 µM.
Regarding `COC(=O)C1=C(C)NC(C)=C([N+](=O)[O-])C1c1cccc(OC)c1OCC=CCN1CCN(c2ncccn2)CC1` (stereo not shown) [Example 121], the IC50 on alpha1 -adrenoceptors was found to be 8.2 µM; on Ca^2 + channels, 3 µM.
Regarding `COc1ccccc1N1CCN(CCCOc2cccc(C3C(C(=O)Nc4ccccc4)=C(C)NC(C)=C3[N+](=O)[O-])c2)CC1` (stereo not shown) [Example 122], the IC50 at alpha1 -adrenoceptors is 0.23 µM; on Ca^2 + channels, > 10 µM.
The matching figures for `COC(=O)C1=C(C)NC(C)=C([N+](=O)[O-])C1c1cccc(OCCCN2CCN(c3ncccn3)CC2)c1` (stereo not shown) [Example 124]: 1.2 µM and 18 µM.
As to `CCOC(=O)C1=C(C)NC(C)=C([N+](=O)[O-])C1c1cccc(OCCCN2CCN(c3ccccn3)CC2)c1` (stereo not shown) [Example 126], the results for the IC50 on alpha1 -adrenoceptors and on Ca^2 + channels were 0.29 µM and 5 µM, respectively.
The matching figures for `COC(=O)C1=C(C)NC(C)=C([N+](=O)[O-])C1c1cccc(OCC#CCN2CCN(c3ccccc3OC)CC2)c1` (stereo not shown) [Example 127]: 2.7 µM and 2 µM.
In the case of `COC(=O)C1=C(C)NC(C)=C([N+](=O)[O-])C1c1cccc(OCCCN2CCN(c3ccccn3)CC2)c1` (stereo not shown) [Example 128], the values for the IC50 at alpha1 -adrenoceptors and on Ca^2 + channels were 0.1 µM and 5.7 µM, respectively.
`COC(=O)C1=C(C)NC(C)=C([N+](=O)[O-])C1c1cccc(OCCCN2CCN(c3ccccc3C)CC2)c1` (stereo not shown) [Example 131]: the figures for the IC50 on alpha1 -adrenoceptors and at Ca^2 + channels were 0.15 µM and 3.6 µM, respectively.
On the same counts, the results for `COC(=O)C1=C(C)NC(C)=C([N+](=O)[O-])C1c1cccc(OCCCN2CCN(c3ccccc3Cl)CC2)c1` (stereo not shown) [Example 132] are 0.13 µM and 2.3 µM.
Regarding `COc1ccccc1N1CCN(CCCCOc2ccccc2C2C(C(=O)OC(C)C)=C(C)NC(C)=C2[N+](=O)[O-])CC1` (stereo not shown) [Example 133], the results for the IC50 on alpha1 -adrenoceptors and at Ca^2 + channels were 0.75 µM and 0.42 µM, respectively.
`COc1ccccc1N1CCN(CCCOc2ccccc2C2C(C(=O)OC(C)C)=C(C)NC(C)=C2[N+](=O)[O-])CC1` (stereo not shown) [Example 134]: the IC50 came to 0.34 µM on alpha1 -adrenoceptors and 8.4 µM at Ca^2 + channels.
As for `COC(=O)C1=C(C)NC(C)=C([N+](=O)[O-])C1c1ccc(OCCCN2CCN(c3ccccc3OC)CC2)cc1` (stereo not shown) [Example 135], the IC50 at alpha1 -adrenoceptors came out at 0.43 µM; at Ca^2 + channels, 6.7 µM.
